Where a name gives a salt, the structure may show the parent alone. Read-outs that look alike come from different tables or passages of the source.
Assays:
[1] = tested on: Ovarian A2780 and A2008 cancer cells; test: Ovarian cancer cell growth (Alamar Blue); type: cell-based, human
Protocol: Ovarian A2780 and A2008 cancer cells were plated in 96 well plates at 1-2×10^4 cells/well. […] Alamar Blue was later added to each well following an incubation period, and fluorescent readings taken at excitation 530-560 nm and emission of 590 nm and above on a SYNERGY HT Multi Detection Reader. […] Significance was p<0.001 for 400 to 900 μM of MK-801. […] These findings indicate both NMDAR antagonists and anti-NMDA receptor monoclonal antibodies would be of use as effective inhibitors of ovarian tumor xenografts in mice.

[2] = tested on: MCF-7 breast cancer cells; test: Alamar Blue growth/proliferation study; type: cell-based, human; conditions: MCF-7, NMDAR1 antagonist treatment
[3] = tested on: NCI-H82 variant SCLC cells; test: Cell growth/viability assay (Alamar Blue); type: cell-based, human; conditions: for IC50: Homo sapiens
Protocol: (§1) Cultures of NCI-H345, NCI-H146, DMS-53 cells (classical cell lines), and NCI-H82 cells (variant cell line) were treated with 0.05% trypsin, washed in phosphate buffered saline (PBS)/glycine and plated onto 96-well plates at 10^4 cells/well in medium for 24 hours to provide time for rectifying possible damage to membrane proteins from the trypsinization. […] Fluorescent readings were taken at periods representing 24, 48, and 72 hours of incubation with antagonist using a Synergy HT Multi-Detection Microplate Reader and excitation/emission wavelengths of 530 nm and 590 nm. Cell viability was evaluated as % vehicle control at the corresponding incubation time.

[4] = tested on: SCLC NCI-H345 tumor xenografts; test: Treatment of SCLC tumor xenografts in mice; type: in vivo, nu/nu mice
Description: Human tumor xenografts of small cell lung cancer (SCLC) cell line NCI-H345 were raised in nu/nu mice, and the influence of the NMDAR1 receptor antagonist dizocilpine maleate (MK-801) then examined on established tumor growth measured by multiplying depth, width, and length determined using a micrometer. Tumor growth in a control group of animals receiving i.p. PBS vehicle (n=4) was compared to tumor growth in animals (n=4) receiving dizocilpine maleate (MK-801) over 10 days. Animals received an escalating single dose of this NMDAR1 antagonist from 0.1 mg/Kg body weight each day for days 0-2, then to a single dose of 0.2 mg/Kg body weight each day for days 3-6, then to a single dose of 0.3 mg/Kg body weight each day for days 7-8. Finally two daily doses of 0.3 mg/Kg body weight were given for days 8-10.
Results were analyzed by Analysis of Variance and the Student-Neuman-Kuels test. Longitudinal growth data was evaluated using repeated measures ANOVA. Significant was determined to be present for p<0.05.

[5] = tested on: LNCAP prostate cancer cells; test: Prostate cancer cell viability (Alamar Blue); type: cell-based, human
Protocol: To determine the effects of NMDAR1 antibodies on prostate cell viability, LNCAP prostate cancer cells were plated in 96 well plates at 1-2×10^4 cells/well. […] Alamar Blue was later added to each well following an incubation period, and fluorescent readings taken at excitation 530-560 nm and emission 590 nm and above on a SYNERGY HT Multi Detection Reader.

[6] = tested on: NCI-H345 classical SCLC cells; test: Cell growth/viability assay (Alamar Blue); conditions: for IC50: Homo sapiens
Protocol: Cultures of NCI-H345, NCI-H146, DMS-53 cells (classical cell lines), and NCI-H82 cells (variant cell line) were treated with 0.05% trypsin, washed in phosphate buffered saline (PBS)/glycine and plated onto 96-well plates at 10^4 cells/well in medium for 24 hours to provide time for rectifying possible damage to membrane proteins from the trypsinization. The wells were washed and incubated with PBS/glycine containing albumin (1.25 mg/mL) in the presence or absence of different concentrations (25 μM-800 μM) of either the NMDAR 1 antagonists, Memantine or MK-801; or the NMDAR2B antagonists Ifenprodil and Ro 25-6981 (binders to the polyamine site), or the NMDAR2B antagonists L-701,252 and L-701,324 (binders to the glycine site), or vehicle; and Alamar Blue (1:10 dilution following manufacturer's recommendation). Fluorescent readings were taken at periods representing 24, 48, and 72 hours of incubation with antagonist using a Synergy HT Multi-Detection Microplate Reader and excitation/emission wavelengths of 530 nm and 590 nm. Cell viability was evaluated as % vehicle control at the corresponding incubation time.
This peptide domain is represented in that portion of the mRNA message sequenced by RT-PCR. For studies on cell proliferation, the IgGs of this antiserum were first isolated by precipitation with 50% saturated ammonium sulfate, and antibodies purified from these immunoglobulins by affinity chromatography using a column containing the peptide component of the above antigen coupled to SEPHAROSE (Friedmann, et al. (1994) supra; Keegan, et al. (2002) supra).

DMS-53 cells = test: Cell growth/viability assay (Alamar Blue); type: cell-based, human; conditions: Homo sapiens, DMS-53, 48 h, read-out: IC50, cell viability
Protocol: as §1

[7] = tested on: Human tumor xenografts of breast cancer cells; test: Breast cancer xenografts treated with anti-NMDAR1 antibodies; design: species or system nu/nu mice; conditions: mouse
Protocol: Human tumor xenografts of breast cancer cells were raised in nu/nu mice, and the influence of anti-NMDAR1 polyclonal antibodies then examined on tumor growth. For antibody studies, growth in a control group (n=4) was compared to tumor growth in animals (n=4) receiving 50 ng of Protein A-isolated, antibody-containing, IgG once each day for 15 days. Tumor was then measured for an […]. While control tumors grew to >20 times their original size, tumors treated with anti-NMDAR1 antibodies shrank to <50% original size and remained at this shrunken size for the duration of treatment (p<<0.0001)(FIG. 7). Tumor size then began very slowly to rise but even 20 days later they were only back to original size (100%). Values are expressed as a percentage of tumor size at day 0 (+/−SEM).

[8] = tested on: SKBr3 breast cancer cells; test: Alamar Blue growth/proliferation study; type: cell-based, human; conditions: SKBr3, NMDAR1 antagonist treatment
Protocol: Results represent triplicate studies performed with Alamar Blue on LAN2 neuroblastoma, MCF-7 breast cancer, and SKBr3 breast cancer cells examining the growth influence of 1 mM glutamate in the presence of glycine over 24 hours.
Results represent triplicate studies performed with Alamar Blue on LAN2 neuroblastoma, MCF-7 breast cancer, and SKBr3 breast cancer cells examining the growth influence of 100 mM Mg^++ in the presence of glycine over 24 hours.

[9] = tested on: SKBr3 breast cancer cells; test: Alamar Blue growth/proliferation study; type: cell-based, human
NCI-H146 cells = test: Cell growth/viability assay (Alamar Blue); type: cell-based, human; conditions: Homo sapiens, NCI-H146, 48 h, read-out: IC50, cell viability
Protocol: as §1

With `C[C@]12N[C@H](Cc3ccccc31)c1ccccc12` [MK-801, dizocilpine maleate] the “reduction in fluorescent units” value ([1]; at 500, 600, 700, 800, and 900 μM compared to 100, 200 and 400 μM) was “more than 50%”, the “effect on cell growth (in words)” value ([1]; ovarian cancer cells, Alamar Blue) was “dramatic reductions in cell growth” and the “effect on proliferation (in words)” value [2] was “decrease proliferation”. For the same molecule, the IC50 ([3]; NCI-H82, 48 h, read-out: IC50, cell viability) was 300 µM, the IC50 ([3]; NCI-H82, read-out: IC50, cell viability) was ~200 µM and the “Cell viability reduced to” value ([3]; NCI-H82, 24, 48, and 72 hours incubation) was “about 10 % of control”. The “behavioral effects in the animals” value ([4]; MK-801 at the dose indicated) was “no noticeable behavioral effects”, the “well-being as exemplified by body weight” value ([4]; MK-801 at the dose indicated) was “no apparent effect on their well-being” and the “Growth of small-cell tumors (in words)” value ([4]; escalating doses from 0.1 mg/kg once daily to 0.3 mg/kg twice daily) was “significantly (p<0.0001) reduced”. The “rate of tumor growth reduced to” value ([4]; i.p., escalating 0.1 to 0.3 mg/Kg over 10 days) was ~60 % that of controls, the “effect on cell growth/viability (in words)” value [5] was “significance in reductions was p<0.001 for 400 to 900 μM” and the IC50 ([6]; NCI-H345, 48 h, read-out: IC50, cell viability) was 300 µM. For the same molecule, the IC50 ([6]; NCI-H345, read-out: IC50, cell viability) was ~200 µM, the “Cell viability reduced to” value ([6]; NCI-H345, 24, 48, and 72 hours incubation) was “about 10 % of control” and the IC50 (DMS-53 cells) was > 800 µM. For the same molecule, the “growth of breast cancer tumors in vivo (in words)” value [7] was “completely inhibited growth of these tumors in vivo”, the “effect on proliferation (in words)” value [8] was “decrease proliferation” and the “Proliferation of SKBr3 Cells Percent Fluorescence Compared to Control” value ([9]; 100 μM, 24 Hours) was 92.29 ± 6.82%. The “Proliferation of SKBr3 Cells Percent Fluorescence Compared to Control” value ([9]; 100 μM, 48 Hours) was 91.74 ± 2.94%, the “Proliferation of SKBr3 Cells Percent Fluorescence Compared to Control” value ([9]; 100 μM, 72 Hours) was 95.06 ± 1.22% and the “Proliferation of SKBr3 Cells Percent Fluorescence Compared to Control” value ([9]; 200 μM, 24 Hours) was 89.47 ± 5.77%. For the same molecule, the “Proliferation of SKBr3 Cells Percent Fluorescence Compared to Control” value ([9]; 200 μM, 48 Hours) was 89.35 ± 2.83%, the “Proliferation of SKBr3 Cells Percent Fluorescence Compared to Control” value ([9]; 200 μM, 72 Hours) was 93.24 ± 1.68% and the “Proliferation of SKBr3 Cells Percent Fluorescence Compared to Control” value ([9]; 300 μM, 24 Hours) was 84.39 ± 5.01%. For the same molecule, the “Proliferation of SKBr3 Cells Percent Fluorescence Compared to Control” value ([9]; 300 μM, 48 Hours) was 83.79 ± 2.71%, the “Proliferation of SKBr3 Cells Percent Fluorescence Compared to Control” value ([9]; 300 μM, 72 Hours) was 88.97 ± 2.04% and the “Proliferation of SKBr3 Cells Percent Fluorescence Compared to Control” value ([9]; 400 μM, 24 Hours) was 75.17 ± 4.67%. The “Proliferation of SKBr3 Cells Percent Fluorescence Compared to Control” value ([9]; 400 μM, 48 Hours) was 70.62 ± 2.34%, the “Proliferation of SKBr3 Cells Percent Fluorescence Compared to Control” value ([9]; 400 μM, 72 Hours) was 77.08 ± 2.78% and the “Proliferation of SKBr3 Cells Percent Fluorescence Compared to Control” value ([9]; 500 μM, 24 Hours) was 65.50 ± 3.74%. For the same molecule, the “Proliferation of SKBr3 Cells Percent Fluorescence Compared to Control” value ([9]; 500 μM, 48 Hours) was 59.07 ± 2.49%, the “Proliferation of SKBr3 Cells Percent Fluorescence Compared to Control” value ([9]; 500 μM, 72 Hours) was 67.02 ± 5.13% and the “Proliferation of SKBr3 Cells Percent Fluorescence Compared to Control” value ([9]; 600 μM, 24 Hours) was 58.06 ± 3.00%. For the same molecule, the “Proliferation of SKBr3 Cells Percent Fluorescence Compared to Control” value ([9]; 600 μM, 48 Hours) was 50.59 ± 2.34%, the “Proliferation of SKBr3 Cells Percent Fluorescence Compared to Control” value ([9]; 600 μM, 72 Hours) was 52.57 ± 2.28% and the “Proliferation of SKBr3 Cells Percent Fluorescence Compared to Control” value ([9]; 700 μM, 24 Hours) was 51.97 ± 2.77%. The “Proliferation of SKBr3 Cells Percent Fluorescence Compared to Control” value ([9]; 700 μM, 48 Hours) was 43.84 ± 3.41%, the “Proliferation of SKBr3 Cells Percent Fluorescence Compared to Control” value ([9]; 700 μM, 72 Hours) was 44.88 ± 3.40% and the “Proliferation of SKBr3 Cells Percent Fluorescence Compared to Control” value ([9]; 800 μM, 24 Hours) was 43.27 ± 2.50%. For the same molecule, the “Proliferation of SKBr3 Cells Percent Fluorescence Compared to Control” value ([9]; 800 μM, 48 Hours) was 33.77 ± 4.19%, the “Proliferation of SKBr3 Cells Percent Fluorescence Compared to Control” value ([9]; 800 μM, 72 Hours) was 33.91 ± 4.35% and the “Proliferation of SKBr3 Cells Percent Fluorescence Compared to Control” value ([9]; 900 μM, 24 Hours) was 35.73 ± 2.66%. The “Proliferation of SKBr3 Cells Percent Fluorescence Compared to Control” value ([9]; 900 μM, 48 Hours) was 25.48 ± 5.92%, the “Proliferation of SKBr3 Cells Percent Fluorescence Compared to Control” value ([9]; 900 μM, 72 Hours) was 25.21 ± 5.96% and the “reduced proliferation by” value ([9]; SKBr3, 0.9 mM, 72 hours) was “about 80%”. The IC50 (NCI-H146 cells) was 650 µM.

From US9694072B2, “Methods for diagnosing and treating neuroendocrine cancer” (Trustees of Dartmouth College, priority 2005, dated 2017)
